# According to patent US20230085307A1, “PYRIDAZINONE COMPOUND AND HERBICIDE” (NISSAN CHEMICAL CORPORATION, priority 2019, published 2023):
# Assays:
# [1] = tested on: late watergrass; test: Test Example 1: herbicidal activity, application before weed generation under submerged conditions (Table 16, symbol A); assay type: in vivo, late watergrass (Echinochloa oryzicola); conditions: amount of applied herbicide 320 g/ha
# Method in brief: (§1)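 Submerged Wagner pots (alluvial soil, 4 cm water) sown with weed seeds and planted with 2.5-leaf rice seedlings; emulsifiable concentrate diluted in water applied to water surface on sowing day. Held in greenhouse at 25-30 °C; injury scored 0-5 by herbicidal rate after three weeks.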
# [2] = tested on: persian speedwell; test: Test Example 4: herbicidal effect by soil treatment (Table 19, symbol R); assay type: in vivo, Persian speedwell (Veronica persica); conditions: amount of applied herbicide 320 g/ha
# Method in brief: (§2)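 Emulsion of test compound, water-diluted to predetermined amount, sprayed on soil after sowing (seed depth ~1.5 cm, sterilized diluvial soil). Greenhouse, 25–30° C. Effect graded at three weeks post-spray.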
# [3] = tested on: oval-leafed pondweed; test: Test Example 1: herbicidal activity, application before weed generation under submerged conditions (Table 16, symbol C); assay type: in vivo, oval-leafed pondweed (Monochoria vaginalis); conditions: amount of applied herbicide 320 g/ha
# Method in brief: as §1
# [4] = tested on: Italian ryegrass; test: Test Example 5: herbicidal effect by foliage application, plastic box (Table 20, symbol K); assay type: in vivo, Italian ryegrass (Lolium multiflorum); conditions: 320 g/ha
# Method in brief: (§3)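 Post-emergence foliar test in sterilized diluvial soil. Compound applied as water-diluted emulsion at a predetermined rate to 14-day-old plants; evaluation at three weeks.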
# [5] = tested on: green foxtail; test: Test Example 5: herbicidal effect by foliage application, plastic box (Table 20, symbol G); assay type: in vivo, green foxtail (Setaria viridis); conditions: 320 g/ha
# Method in brief: as §3
# [6] = tested on: windgrass; test: Test Example 5: herbicidal effect by foliage application, plastic box (Table 20, symbol L); assay type: in vivo, windgrass (Apera spica-venti); conditions: 320 g/ha
# Method in brief: as §3
# [7] = tested on: rice flat sedge; test: Test Example 3: herbicidal effect by foliage application, Wagner pot (Table 18, symbol E); assay type: in vivo, rice flat sedge (Cyperus iria); conditions: amount of applied herbicide 320 g/ha
# Method in brief: (§4)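 Plants were sown in alluvial soil held under 0.1–0.5 cm standing water and grown 14 days in a greenhouse at 25–30 °C. An emulsifiable formulation, water-diluted to the set dose, was then sprayed onto the foliage, and effects were scored three weeks later using previously defined criteria.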
# [8] = tested on: Italian ryegrass; test: Test Example 4: herbicidal effect by soil treatment (Table 19, symbol K); assay type: in vivo, Italian ryegrass (Lolium multiflorum); conditions: amount of applied herbicide 320 g/ha
# Method in brief: as §2
# [9] = tested on: redroot pigweed; test: Test Example 4: herbicidal effect by soil treatment (Table 19, symbol N); assay type: in vivo, redroot pigweed (Amaranthus retroflexus); conditions: amount of applied herbicide 320 g/ha
# Method in brief: as §2
# [10] = tested on: barnyard grass; test: Test Example 4: herbicidal effect by soil treatment (Table 19, symbol H); assay type: in vivo, barnyard grass (Echinochloa crus-galli); conditions: amount of applied herbicide 320 g/ha
# Method in brief: as §2
# [11] = tested on: velvetleaf; test: Test Example 4: herbicidal effect by soil treatment (Table 19, symbol M); assay type: in vivo, velvetleaf (Abutilon theophrasti); conditions: amount of applied herbicide 320 g/ha
# Method in brief: as §2
# [12] = tested on: barnyard grass; test: Test Example 5: herbicidal effect by foliage application, plastic box (Table 20, symbol H); assay type: in vivo, barnyard grass (Echinochloa crus-galli); conditions: 320 g/ha
# Method in brief: as §3
# [13] = tested on: lambsquarters; test: Test Example 5: herbicidal effect by foliage application, plastic box (Table 20, symbol O); assay type: in vivo, lambsquarters (Chenopodium album); conditions: 320 g/ha
# Method in brief: as §3
# [14] = tested on: blackgrass; test: Test Example 4: herbicidal effect by soil treatment (Table 19, symbol J); assay type: in vivo, blackgrass (Alopecurus myosuroides); conditions: amount of applied herbicide 320 g/ha
# Method in brief: as §2
# [15] = tested on: velvetleaf; test: Test Example 5: herbicidal effect by foliage application, plastic box (Table 20, symbol M); assay type: in vivo, velvetleaf (Abutilon theophrasti); conditions: 320 g/ha
# Method in brief: as §3
# [16] = tested on: redroot pigweed; test: Test Example 5: herbicidal effect by foliage application, plastic box (Table 20, symbol N); assay type: in vivo, redroot pigweed (Amaranthus retroflexus); conditions: 320 g/ha
# Method in brief: as §3
# [17] = tested on: false cleavers; test: Test Example 4: herbicidal effect by soil treatment (Table 19, symbol Q); assay type: in vivo, false cleavers (Galium spurium); conditions: amount of applied herbicide 320 g/ha
# Method in brief: as §2
# [18] = tested on: Japanese bulrush; test: Test Example 1: herbicidal activity, application before weed generation under submerged conditions (Table 16, symbol B); assay type: in vivo, Japanese bulrush (Schoenoplectus juncoides); conditions: amount of applied herbicide 320 g/ha
# Method in brief: as §1
# [19] = tested on: southern crabgrass; test: Test Example 5: herbicidal effect by foliage application, plastic box (Table 20, symbol F); assay type: in vivo, southern crabgrass (Digitaria ciliaris); conditions: 320 g/ha
# Method in brief: as §3
# [20] = tested on: persian speedwell; test: Test Example 5: herbicidal effect by foliage application, plastic box (Table 20, symbol R); assay type: in vivo, Persian speedwell (Veronica persica); conditions: 320 g/ha
# Method in brief: as §3
# [21] = tested on: windgrass; test: Test Example 4: herbicidal effect by soil treatment (Table 19, symbol L); assay type: in vivo, windgrass (Apera spica-venti); conditions: amount of applied herbicide 320 g/ha
# Method in brief: as §2
# [22] = tested on: barnyard grass; test: Test Example 3: herbicidal effect by foliage application, Wagner pot (Table 18, symbol H); assay type: in vivo, barnyard grass (Echinochloa crus-galli); conditions: amount of applied herbicide 320 g/ha
# Method in brief: as §4
# [23] = tested on: southern crabgrass; test: Test Example 4: herbicidal effect by soil treatment (Table 19, symbol F); assay type: in vivo, southern crabgrass (Digitaria ciliaris); conditions: amount of applied herbicide 320 g/ha
# Method in brief: as §2
# [24] = tested on: wild oat; test: Test Example 5: herbicidal effect by foliage application, plastic box (Table 20, symbol I); assay type: in vivo, wild oat (Avena fatua); conditions: 320 g/ha
# Method in brief: as §3
# [25] = tested on: lambsquarters; test: Test Example 4: herbicidal effect by soil treatment (Table 19, symbol O); assay type: in vivo, lambsquarters (Chenopodium album); conditions: amount of applied herbicide 320 g/ha
# Method in brief: as §2
# [26] = tested on: chickweed; test: Test Example 5: herbicidal effect by foliage application, plastic box (Table 20, symbol P); assay type: in vivo, common chickweed (Stellaria media); conditions: 320 g/ha
# Method in brief: as §3
# [27] = tested on: wild oat; test: Test Example 4: herbicidal effect by soil treatment (Table 19, symbol I); assay type: in vivo, wild oat (Avena fatua); conditions: amount of applied herbicide 320 g/ha
# Method in brief: as §2
# [28] = tested on: blackgrass; test: Test Example 5: herbicidal effect by foliage application, plastic box (Table 20, symbol J); assay type: in vivo, blackgrass (Alopecurus myosuroides); conditions: 320 g/ha
# Method in brief: as §3
# [29] = tested on: green foxtail; test: Test Example 4: herbicidal effect by soil treatment (Table 19, symbol G); assay type: in vivo, green foxtail (Setaria viridis); conditions: amount of applied herbicide 320 g/ha
# Method in brief: as §2
# [30] = tested on: Chinese sprangletop; test: Test Example 3: herbicidal effect by foliage application, Wagner pot (Table 18, symbol D); assay type: in vivo, chinese sprangletop (Leptochloa chinensis); conditions: amount of applied herbicide 320 g/ha
# Method in brief: as §4
# [31] = tested on: chickweed; test: Test Example 4: herbicidal effect by soil treatment (Table 19, symbol P); assay type: in vivo, common chickweed (Stellaria media); conditions: amount of applied herbicide 320 g/ha
# Method in brief: as §2
# [32] = foliage application, three weeks after application
# [33] = foliage application after 14-day growth, evaluated three weeks after application
structure (smiles),measurement,setting,value
COc1ccccc1-c1sc2ccc(F)cc2c1-c1c(O)c(C)nn(CC#N)c1=O [2-431],"Herbicidal effect, A: late watergrass",[1],2 (Herbicidal rate of 20% or more and less than 40%)
same,"herbicidal effect, R: persian speedwell",[2],0 (Herbicidal rate of 5% or less (almost no effect))
same,"Herbicidal effect, C: oval-leafed pondweed",[3],0 (Herbicidal rate of 5% or less (almost no effect))
same,"K: Italian ryegrass, herbicidal effect grade",[4]; [32],0 (Herbicidal rate of 5% or less (almost no effect))
same,"G: green foxtail, herbicidal effect grade",[5]; [32],0 (Herbicidal rate of 5% or less (almost no effect))
same,"L: windgrass, herbicidal effect grade",[6]; [32],0 (Herbicidal rate of 5% or less (almost no effect))
same,herbicidal effect on E: rice flat sedge,[7],5 (Herbicidal rate of 90% or more (almost completely withered))
same,"herbicidal effect, K: Italian ryegrass",[8],0 (Herbicidal rate of 5% or less (almost no effect))
same,"herbicidal effect, N: redroot pigweed",[9],5 (Herbicidal rate of 90% or more (almost completely withered))
same,"herbicidal effect, H: barnyard grass",[10],0 (Herbicidal rate of 5% or less (almost no effect))
same,"herbicidal effect, M: velvetleaf",[11],1 (Herbicidal rate of 5% or more and less than 20%)
same,"H: barnyard grass, herbicidal effect grade",[12]; [32],0 (Herbicidal rate of 5% or less (almost no effect))
same,"O: lambsquarters, herbicidal effect grade",[13]; [32],1 (Herbicidal rate of 5% or more and less than 20%)
same,"herbicidal effect, J: blackgrass",[14],0 (Herbicidal rate of 5% or less (almost no effect))
same,"M: velvetleaf, herbicidal effect grade",[15]; [32],2 (Herbicidal rate of 20% or more and less than 40%)
same,"N: redroot pigweed, herbicidal effect grade",[16]; [32],3 (Herbicidal rate of 40% or more and less than 70%)
same,"herbicidal effect, Q: false cleavers",[17],0 (Herbicidal rate of 5% or less (almost no effect))
same,"Herbicidal effect, B: Japanese bulrush",[18],0 (Herbicidal rate of 5% or less (almost no effect))
same,"F: southern crabgrass, herbicidal effect grade",[19]; [32],0 (Herbicidal rate of 5% or less (almost no effect))
same,"R: persian speedwell, herbicidal effect grade",[20]; [32],3 (Herbicidal rate of 40% or more and less than 70%)
same,"herbicidal effect, L: windgrass",[21],0 (Herbicidal rate of 5% or less (almost no effect))
same,herbicidal effect on H: barnyard grass,[22],5 (Herbicidal rate of 90% or more (almost completely withered))
same,"herbicidal effect, F: southern crabgrass",[23],0 (Herbicidal rate of 5% or less (almost no effect))
same,"I: wild oat, herbicidal effect grade",[24]; [32],0 (Herbicidal rate of 5% or less (almost no effect))
same,"herbicidal effect, O: lambsquarters",[25],1 (Herbicidal rate of 5% or more and less than 20%)
same,"P: chickweed, herbicidal effect grade",[26]; [32],5 (Herbicidal rate of 90% or more (almost completely withered))
same,"herbicidal effect, I: wild oat",[27],0 (Herbicidal rate of 5% or less (almost no effect))
same,"J: blackgrass, herbicidal effect grade",[28]; [32],0 (Herbicidal rate of 5% or less (almost no effect))
same,"herbicidal effect, G: green foxtail",[29],0 (Herbicidal rate of 5% or less (almost no effect))
same,herbicidal effect on D: Chinese sprangletop,[30],3 (Herbicidal rate of 40% or more and less than 70%)
Cc1nn(C)c(=O)c(-c2c(-c3ccc(C(C)C)cc3)sc3c(F)cccc23)c1O [4-042],"Herbicidal effect, A: late watergrass",[1],3 (Herbicidal rate of 40% or more and less than 70%)
same,"Herbicidal effect by soil treatment, R: persian speedwell",[2],3 (Herbicidal rate of 40% or more and less than 70%)
same,"Herbicidal effect, C: oval-leafed pondweed",[3],0 (Herbicidal rate of 5% or less (almost no effect))
same,herbicidal effect on K: Italian ryegrass (evaluation grade 0-5),[4]; [33],3 (Herbicidal rate of 40% or more and less than 70%)
same,herbicidal effect on G: green foxtail (evaluation grade 0-5),[5]; [33],4 (Herbicidal rate of 70% or more and less than 90%)
same,herbicidal effect on L: windgrass (evaluation grade 0-5),[6]; [33],0 (Herbicidal rate of 5% or less (almost no effect))
same,"Herbicidal effect by soil treatment, P: chickweed",[31],5 (Herbicidal rate of 90% or more (almost completely withered))
same,"Herbicidal effect by soil treatment, K: Italian ryegrass",[8],0 (Herbicidal rate of 5% or less (almost no effect))
same,"Herbicidal effect by soil treatment, N: redroot pigweed",[9],4 (Herbicidal rate of 70% or more and less than 90%)
same,"Herbicidal effect by soil treatment, H: barnyard grass",[10],1 (Herbicidal rate of 5% or more and less than 20%)
same,"Herbicidal effect by soil treatment, M: velvetleaf",[11],1 (Herbicidal rate of 5% or more and less than 20%)
same,herbicidal effect on H: barnyard grass (evaluation grade 0-5),[12]; [33],5 (Herbicidal rate of 90% or more (almost completely withered))
same,herbicidal effect on O: lambsquarters (evaluation grade 0-5),[13]; [33],4 (Herbicidal rate of 70% or more and less than 90%)
same,"Herbicidal effect by soil treatment, J: blackgrass",[14],0 (Herbicidal rate of 5% or less (almost no effect))
same,herbicidal effect on M: velvetleaf (evaluation grade 0-5),[15]; [33],5 (Herbicidal rate of 90% or more (almost completely withered))
same,herbicidal effect on N: redroot pigweed (evaluation grade 0-5),[16]; [33],5 (Herbicidal rate of 90% or more (almost completely withered))
same,"Herbicidal effect by soil treatment, Q: false cleavers",[17],0 (Herbicidal rate of 5% or less (almost no effect))
same,"Herbicidal effect, B: Japanese bulrush",[18],3 (Herbicidal rate of 40% or more and less than 70%)
same,herbicidal effect on F: southern crabgrass (evaluation grade 0-5),[19]; [33],1 (Herbicidal rate of 5% or more and less than 20%)
same,herbicidal effect on R: persian speedwell (evaluation grade 0-5),[20]; [33],5 (Herbicidal rate of 90% or more (almost completely withered))
same,"Herbicidal effect by soil treatment, L: windgrass",[21],0 (Herbicidal rate of 5% or less (almost no effect))
same,"Herbicidal effect by soil treatment, F: southern crabgrass",[23],0 (Herbicidal rate of 5% or less (almost no effect))
same,herbicidal effect on I: wild oat (evaluation grade 0-5),[24]; [33],0 (Herbicidal rate of 5% or less (almost no effect))
same,"Herbicidal effect by soil treatment, O: lambsquarters",[25],3 (Herbicidal rate of 40% or more and less than 70%)
same,herbicidal effect on P: chickweed (evaluation grade 0-5),[26]; [33],5 (Herbicidal rate of 90% or more (almost completely withered))
same,"Herbicidal effect by soil treatment, I: wild oat",[27],0 (Herbicidal rate of 5% or less (almost no effect))
same,herbicidal effect on J: blackgrass (evaluation grade 0-5),[28]; [33],0 (Herbicidal rate of 5% or less (almost no effect))
same,"Herbicidal effect by soil treatment, G: green foxtail",[29],0 (Herbicidal rate of 5% or less (almost no effect))
